{
  "source": "patent US20160262390A1",
  "about": "“FIELD APPLICATION OF SUGARS TO INCREASE CROP YIELD” (Minn-Dak Farmers Cooperative, priority 2015, published 2016)",
  "key": {"sugarbeets": {"test_system": "sugarbeets", "assay": "Sugarbeet field trial, Wilkin County, Minnesota (ACH 228 seed)", "type": "in vivo", "description": "To test the efficacy of using a sugar based fertilizer composition with sugarbeets, a field trial using Crystal® brand ACH 228 sugarbeet seed was conducted in Wilkin County, Minnesota. A total of eleven (11) treatments were conducted. Each treatment was replicated four times arranged in a Randomized Complete Block (RCB) Design in the same field. Each replication consisted of a plot having a width of six (6) rows with twenty two (22) inch row spacing having a row length of twenty five (25) feet. To reduce/eliminate any treatment impacts between adjacent plots, only the four (4) interior rows of each plot were treated and evaluated. With the exception of the treatment program applied to the individual plots, which will be discussed below, conventional commercial growing practices were otherwise followed during the field trials. The individual plots experienced the same growing conditions throughout the season.\nThe treatment regimen for the sugarbeets included one (1) untreated treatment in which no sugar was applied was used as the control element. One (1) treatment included Sun Energy Foliar Fertilizer (SE) available from Micro Nutrients Online. […] treatments were conducted using GS. SE is available in liquid form and was applied by spraying while GS was supplied in a conventional solid form and applied via broadcast spreading. SE is for foliar application and was applied according to the labeling instructions on post-emergent (Post) sugarbeet plants at the both the 4-Leaf and 8-Leaf stages. GS was applied at a variety of times, both pre-planting (Pre) and on post-emergent sugarbeet plants (Post) at either or both of the 4-Leaf and 8-Leaf stages. When applied during pre-planting (Pre), the GS was spread directly on the soil before spring tillage, lightly worked into the ground and followed by planting of the sugarbeet seed into the treated ground. A summary of the plot treatments are contained in Table 1 below:\nFollowing a conventional growing season, the middle four rows of each plot were harvested and data collected for overall yield (tons of sugarbeets/Acre), sugar per ton (pounds of recoverable sugar/ton of sugarbeets) and sugar per Acre (pounds of recoverable sugar/Acre). Fisher's Exact LSD was the statistical test of choice for mean separation for the individual plots of each treatment. A summary of the sugarbeet harvest data is contained in Table 2 below: […]"}, "soybeans": {"test_system": "soybeans", "assay": "Soybean field trial, Wilkin County, Minnesota (NKS06-H5 seed)", "type": "in vivo", "description": "To test the efficacy of using a sugar based fertilizer composition with soybeans, field trials using Northrup-King NKS06-H5 soybean seed were conducted in Wilkin County, Minnesota. A total of six (6) treatments were conducted. Each treatment was replicated four times arranged in a Randomized Complete Block (RCB) Design in the same field. Each replication consisted of a plot having a width of six (6) rows with twenty two (22) inch row spacing having a row length of twenty five (25) feet. To reduce/eliminate any treatment impacts between adjacent plots, only the four (4) interior rows of each plot were treated and evaluated. With the exception of the treatment program applied to the individual plots, which will be discussed below, conventional commercial growing practices were otherwise followed during the field trials. The individual plots experienced the same growing conditions throughout the season.\nThe treatment regimen for the soybeans included one (1) untreated treatment in which no sugar was applied and was used as the control element. One (1) treatment included treatment with Sun Energy Foliar Fertilizer (SE). […] SE was supplied in liquid form and applied by spraying while GS was supplied in a conventional solid form and applied via broadcast spreading. SE is for foliar application and was applied according to the labeling instructions on post-emergent (Post) soybean plants at both the Vegetative Fourth Trifoliolate (V4) and Reproductive Beginning Flowering (R1) stages. GS was applied at a variety of times, both pre-planting (Pre) and on post-emergent (Post) soybean plants at either or the V4 or R1 stages. When applied during pre-planting (Pre), the GS was spread directly on the soil before spring tillage, lightly worked into the ground and followed by planting of the soybean seed into the treated ground. A summary of the plot treatments is contained in Table 4 below:\nFollowing a conventional growing season, the middle four rows of each plot were harvested and data collected for overall yield (bushels of soybeans/Acre), protein dry basis (%) and oil dry basis (%). Fisher's Exact LSD was the statistical test of choice for mean separation for the individual plots of each treatment. A summary of the soybean harvest data is contained in Table 5 below: […]"}, "[1]": {"conditions": "Replication 3: 50 pounds/Acre Pre"}, "[2]": {"conditions": "Replication 4: 100 pounds/Acre Pre"}, "[3]": {"conditions": "Replication 5: 3 pounds/Acre 4-Leaf Post"}, "[4]": {"conditions": "Replication 6: 3 pounds/Acre 8-Leaf Post"}, "[5]": {"conditions": "Replication 7: 5 pounds/Acre 4-Leaf Post"}, "[6]": {"conditions": "Replication 8: 3 pounds/Acre 4-Leaf + 3 pounds/Acre 8-Leaf Post"}, "[7]": {"conditions": "Replication 9: 5 pounds/Acre 4-Leaf + 5 pounds/Acre 8-Leaf Post"}, "[8]": {"conditions": "Replication 10: 50 pounds/Acre Pre + 3 pounds/Acre 8-Leaf"}, "[9]": {"conditions": "Replication 11: 100 pounds/Acre Pre + 5 pounds/Acre 8-Leaf"}, "[10]": {"conditions": "Replication 3: 100 pounds/Acre Pre + 3 pounds/Acre Post (V4)"}, "[11]": {"conditions": "Replication 4: 3 pounds/Acre Post (R1)"}, "[12]": {"conditions": "Replication 5: 5 pounds/Acre Post (R1)"}, "[13]": {"conditions": "Replication 6: 100 pounds/Acre Pre + 5 pounds/Acre Post (V4)"}},
  "data": [
    {"molecule": "OC[C@H]1O[C@@](CO)(O[C@H]2O[C@H](CO)[C@@H](O)[C@H](O)[C@H]2O)[C@@H](O)[C@@H]1O", "note": "[GS, sucrose]", "values": [
      {"measurement": "Pounds of Recoverable Sugar/Acre", "setting": "sugarbeets; [1]", "result": 7598.95, "unit": "pounds/Acre"},
      {"measurement": "Pounds of Recoverable Sugar/Ton of Sugarbeets", "setting": "sugarbeets; [1]", "result": 282.03, "unit": "pounds/ton"},
      {"measurement": "Tons of Sugarbeets/Acre", "setting": "sugarbeets; [1]", "result": 26.94, "unit": "tons/Acre"},
      {"measurement": "Yield Increase (recoverable sugar/Acre vs check)", "setting": "sugarbeets; [1]", "result": 9.32, "unit": "%"},
      {"measurement": "Pounds of Recoverable Sugar/Acre", "setting": "sugarbeets; [2]", "result": 8051.44, "unit": "pounds/Acre"},
      {"measurement": "Pounds of Recoverable Sugar/Ton of Sugarbeets", "setting": "sugarbeets; [2]", "result": 278.54, "unit": "pounds/ton"},
      {"measurement": "Tons of Sugarbeets/Acre", "setting": "sugarbeets; [2]", "result": 28.91, "unit": "tons/Acre"},
      {"measurement": "Yield Increase (recoverable sugar/Acre vs check)", "setting": "sugarbeets; [2]", "result": 15.83, "unit": "%"},
      {"measurement": "Pounds of Recoverable Sugar/Acre", "setting": "sugarbeets; [3]", "result": 7021.89, "unit": "pounds/Acre"},
      {"measurement": "Pounds of Recoverable Sugar/Ton of Sugarbeets", "setting": "sugarbeets; [3]", "result": 276.83, "unit": "pounds/ton"},
      {"measurement": "Tons of Sugarbeets/Acre", "setting": "sugarbeets; [3]", "result": 25.41, "unit": "tons/Acre"},
      {"measurement": "Yield Increase (recoverable sugar/Acre vs check)", "setting": "sugarbeets; [3]", "result": 1.02, "unit": "%"},
      {"measurement": "Pounds of Recoverable Sugar/Acre", "setting": "sugarbeets; [4]", "result": 7279.72, "unit": "pounds/Acre"},
      {"measurement": "Pounds of Recoverable Sugar/Ton of Sugarbeets", "setting": "sugarbeets; [4]", "result": 284.34, "unit": "pounds/ton"},
      {"measurement": "Tons of Sugarbeets/Acre", "setting": "sugarbeets; [4]", "result": 25.64, "unit": "tons/Acre"},
      {"measurement": "Yield Increase (recoverable sugar/Acre vs check)", "setting": "sugarbeets; [4]", "result": 4.73, "unit": "%"},
      {"measurement": "Pounds of Recoverable Sugar/Acre", "setting": "sugarbeets; [5]", "result": 6712.87, "unit": "pounds/Acre"},
      {"measurement": "Pounds of Recoverable Sugar/Ton of Sugarbeets", "setting": "sugarbeets; [5]", "result": 274.69, "unit": "pounds/ton"},
      {"measurement": "Tons of Sugarbeets/Acre", "setting": "sugarbeets; [5]", "result": 24.43, "unit": "tons/Acre"},
      {"measurement": "Yield Increase (recoverable sugar/Acre vs check)", "setting": "sugarbeets; [5]", "result": "−3.43", "unit": "%"},
      {"measurement": "Pounds of Recoverable Sugar/Acre", "setting": "sugarbeets; [6]", "result": 6125.93, "unit": "pounds/Acre"},
      {"measurement": "Pounds of Recoverable Sugar/Ton of Sugarbeets", "setting": "sugarbeets; [6]", "result": 270.05, "unit": "pounds/ton"},
      {"measurement": "Tons of Sugarbeets/Acre", "setting": "sugarbeets; [6]", "result": 22.81, "unit": "tons/Acre"},
      {"measurement": "Yield Increase (recoverable sugar/Acre vs check)", "setting": "sugarbeets; [6]", "result": "−11.87", "unit": "%"},
      {"measurement": "Pounds of Recoverable Sugar/Acre", "setting": "sugarbeets; [7]", "result": 6957.73, "unit": "pounds/Acre"},
      {"measurement": "Pounds of Recoverable Sugar/Ton of Sugarbeets", "setting": "sugarbeets; [7]", "result": 289.83, "unit": "pounds/ton"},
      {"measurement": "Tons of Sugarbeets/Acre", "setting": "sugarbeets; [7]", "result": 24.00, "unit": "tons/Acre"},
      {"measurement": "Yield Increase (recoverable sugar/Acre vs check)", "setting": "sugarbeets; [7]", "result": 0.10, "unit": "%"},
      {"measurement": "Pounds of Recoverable Sugar/Acre", "setting": "sugarbeets; [8]", "result": 7250.53, "unit": "pounds/Acre"},
      {"measurement": "Pounds of Recoverable Sugar/Ton of Sugarbeets", "setting": "sugarbeets; [8]", "result": 276.34, "unit": "pounds/ton"},
      {"measurement": "Tons of Sugarbeets/Acre", "setting": "sugarbeets; [8]", "result": 26.24, "unit": "tons/Acre"},
      {"measurement": "Yield Increase (recoverable sugar/Acre vs check)", "setting": "sugarbeets; [8]", "result": 4.31, "unit": "%"},
      {"measurement": "Pounds of Recoverable Sugar/Acre", "setting": "sugarbeets; [9]", "result": 7963.70, "unit": "pounds/Acre"},
      {"measurement": "Pounds of Recoverable Sugar/Ton of Sugarbeets", "setting": "sugarbeets; [9]", "result": 274.29, "unit": "pounds/ton"},
      {"measurement": "Tons of Sugarbeets/Acre", "setting": "sugarbeets; [9]", "result": 29.03, "unit": "tons/Acre"},
      {"measurement": "Yield Increase (recoverable sugar/Acre vs check)", "setting": "sugarbeets; [9]", "result": 14.57, "unit": "%"},
      {"measurement": "yield increase in comparison to the untreated check", "setting": "sugarbeets; every pre-planting application of GS", "result": "≥ 4", "unit": "%"},
      {"measurement": "yield increase as compared to the untreated check", "setting": "sugarbeets; largest pre-planting applications of GS", "result": "≥ 14", "unit": "%"},
      {"measurement": "yield data", "setting": "sugarbeets; only post-emergent application of GS at 4-Leaf or 8-Leaf stage", "result": "inconclusive"},
      {"measurement": "side-by-side visual comparison of soybean plants with untreated check", "setting": "soybeans; GS 100 pounds/acre prior to planting, 40 and 60 days after planting (FIGS. 7-9)", "result": "larger more robust soybean plants"},
      {"measurement": "Bushels of Soybeans/Acre", "setting": "soybeans; [10]", "result": 52.92, "unit": "bushels/Acre"},
      {"measurement": "Yield Increase (Treatment Bushels of Soybeans/Acre)/(Check Bushels of Soybeans/Acre)", "setting": "soybeans; [10]", "result": 31.84, "unit": "%"},
      {"measurement": "Bushels of Soybeans/Acre", "setting": "soybeans; [11]", "result": 35.56, "unit": "bushels/Acre"},
      {"measurement": "Yield Increase (Treatment Bushels of Soybeans/Acre)/(Check Bushels of Soybeans/Acre)", "setting": "soybeans; [11]", "result": "−11.41", "unit": "%"},
      {"measurement": "Bushels of Soybeans/Acre", "setting": "soybeans; [12]", "result": 40.14, "unit": "bushels/Acre"},
      {"measurement": "Yield Increase (Treatment Bushels of Soybeans/Acre)/(Check Bushels of Soybeans/Acre)", "setting": "soybeans; [12]", "result": 0.00, "unit": "%"},
      {"measurement": "Bushels of Soybeans/Acre", "setting": "soybeans; [13]", "result": 45.28, "unit": "bushels/Acre"},
      {"measurement": "Yield Increase (Treatment Bushels of Soybeans/Acre)/(Check Bushels of Soybeans/Acre)", "setting": "soybeans; [13]", "result": 12.81, "unit": "%"},
      {"measurement": "yield increase as compared to the untreated check", "setting": "soybeans; every pre-planting (Pre) application of GS", "result": "at least 12.8%"},
      {"measurement": "yield data", "setting": "soybeans; only post-emergent application of GS", "result": "inconclusive"}
    ]}
  ]
}
